# According to patent US20080051598A1, “Process for Production of Polysubstituted Cyclobutanes and Polysubstituted Cyclobutenes” (priority 2004, published 2008):
# Key:
# [1] = system: cultured Plasmodium falciparum; experiment: growth inhibition of malaria parasites; format: cell-based; conditions: read-out: concentration at which growth of cultured Plasmodium falciparum was 50% inhibited
# Procedure: An evaluation was conducted of growth inhibition of malaria parasites by a compound 9 derived by chemical conversion of cyclobutane compound 8 synthesized according to the present invention. As a result, the growth of cultured Plasmodium falciparum was 50% inhibited by a low concentration of 1 μM of compound 9. [drawing 60]
# [2] = system: colon cancer cells (HCT116); experiment: anti-tumor effects, growth of colon cancer cells; format: cell-based; conditions: concentration 25 μg/mL
# Procedure: An evaluation was conducted of the anti-tumor effects of a compound 11 derived by chemical conversion of cyclobutane compound 10 synthesized according to the present invention. As a result, the growth of colon cancer cells (HCT116) was inhibited by a low concentration of 25 μg/mL of compound 11. [drawing 61]
SMILES,IC50 [1] [nM],growth of colon cancer cells (HCT116) [2]
OC[C@H]1C2CCC[C@@]23CCC[C@@]13O (some centres unmarked) [compound 9],1000,–
CC(=O)OC12CCC1(C)C1CC(C)(C)CC2C=C1C (centres unmarked) [compound 11],–,inhibited
